# Results taken from patent US12180173B1, “5-((2-isopropyl-5-methylphenoxy)methyl)-3-(naphthalen-1-yl)-1,2,4-oxadiazole as an anti-cancer and antimicrobial compound” (KING FAISAL UNIVERSITY, priority 2023, dated 2024).
# Legend:
# Format in all cases: cell-based
# [1] = tested on: Aspergillus flavus; experiment: Agar plate disc-diffusion, inhibition zone
# Method: (§1) The agar plate disc-diffusion method was applied. […] The discs were then placed onto the surface of agar plates (nutrient agar for bacteria and Sabouraud's dextrose agar for fungi) seeded with the test organism. Each plate contained 15 mL of the agar medium, previously seeded with 0.2 mL of the broth culture of each organism pregrown for 18 hours. The plates were incubated at 37° C. for 48 h, and 72 h for fungi. The inhibition zones were measured in mm. Discs impregnated with DMSO were used as a control, and its inhibition zone was subtracted from the tested compound actual inhibition zone.
# [2] = tested on: Bacillus cereus; experiment: Agar plate disc-diffusion, inhibition zone
# Method: as §1
# [3] = tested on: Chrysosporium keratinophilum; experiment: Agar plate disc-diffusion, inhibition zone
# Method: as §1
# [4] = tested on: Escherichia coli; experiment: Agar plate disc-diffusion, inhibition zone
# Method: as §1
# [5] = tested on: Pseudomonas aeruginosa; experiment: Agar plate disc-diffusion, inhibition zone
# Method: as §1
# [6] = tested on: Staphylococcus aureus; experiment: Agar plate disc-diffusion, inhibition zone
# Method: as §1
# [7] = tested on: human osteosarcoma cells (MG-63); experiment: Cytotoxicity by SRB assay; details: MG-63 cells, 0.01 μM to 100 μM for 72 h
# Excerpt: (§2) The anticancer activity of the described synthesized compounds against highly aggressive androgen-independent metastatic human prostate cancer cells (PC3) and osteosarcoma (MG-63) cells. The human prostate cancer cells (PC3) and human osteosarcoma cells (MG-63) were obtained from Nawah Scientific Inc. (Mokatam, Cairo, Egypt) and cultured in DMEM (Dulbecco's modified eagle's medium), Gibco, USA, supplemented with fetal bovine serum (FBS) at a concentration of 10% and 100 U/mL of penicillin and streptomycin (PS). The Cells were incubated at 37° C. in a humidified environment that contained 5% CO2.
# (§3) Cells were seeded in 96-well plates as aliquots of 100 μL cell suspension and incubated in a complete media for 24 h. afterward, cells were treated with 5-((2-isopropyl-5-methylphenoxy)methyl)-3-(naphthalen-1-yl)-1,2,4-oxadiazole at diverse concentrations ranging from 0.01 μM to 100 μM for 72 h. Then, cells were fixed at 4° C. for one hour with 150 μL of 10% trichloroacetic acid (TCA). […] Then, 150 μL of Tris pH 10.5 (10 mM) was added, and the absorbance was measured at 540 nm using a BMG LABTECH®-FLUOstar Omega microplate reader (Ortenberg, Germany). Half maximal inhibitory concentrations (IC50) values were calculated for each experiment using GraphPad Prism 6 software. […]
# (§4) The inhibition was calculated using the following equation: Inhibition %=100−Average Viability
# [8] = tested on: human prostate cancer cells (PC3); experiment: Cytotoxicity by SRB assay; details: 0.01 μM to 100 μM for 72 h
# Excerpt: as §2, §3, §4
# [9] = tested on: different microbes; experiment: Antimicrobial activity, agar plate disc-diffusion (overall statement); details: against different microbes (bacteria and fungi)
# Method: The agar plate disc-diffusion method was applied. Sterilized filter papers (6 mm in diameter) were wetted with 10 μL of a solution of 5-((2-isopropyl-5-methylphenoxy)methyl)-3-(naphthalen-1-yl)-1,2,4-oxadiazole (3) to be tested, containing 10 mg/mL in DMSO, and the discs were allowed to air dry. The discs were then placed onto the surface of agar plates (nutrient agar for bacteria and Sabouraud's dextrose agar for fungi) seeded with the test organism. Each plate contained 15 mL of the agar medium, previously seeded with 0.2 mL of the broth culture of each organism pregrown for 18 hours. The plates were incubated at 37° C. for 48 h, and 72 h for fungi. The inhibition zones were measured in mm. Discs impregnated with DMSO were used as a control, and its inhibition zone was subtracted from the tested compound actual inhibition zone.
# [10] = A = concentration of comp. = 10,000 μL
# [11] = B = concentration of comp. = 30,000 μL
# [12] = C = concentration of comp. = 50,000 μL
smiles,measurement,setting,value
"O=C(O)c1cn(C2CC2)c2cc(N3CCNCC3)c(F)cc2c1=O [Cip., ciprofloxacin, reference compound]",inhibition zone,[1]; [10],29 mm
same,inhibition zone,[1]; [11],30 mm
same,inhibition zone,[1]; [12],42 mm
same,inhibition zone,[2]; [10],29 mm
same,inhibition zone,[2]; [11],30 mm
same,inhibition zone,[2]; [12],42 mm
same,inhibition zone,[3]; [10],29 mm
same,inhibition zone,[3]; [11],30 mm
same,inhibition zone,[3]; [12],53 mm
same,inhibition zone,[4]; [10],30 mm
same,inhibition zone,[4]; [11],39 mm
same,inhibition zone,[4]; [12],60 mm
same,inhibition zone,[5]; [10],29 mm
same,inhibition zone,[5]; [11],30 mm
same,inhibition zone,[5]; [12],53 mm
same,inhibition zone,[6]; [10],43 mm
same,inhibition zone,[6]; [11],44 mm
same,inhibition zone,[6]; [12],53 mm
"Cc1ccc(C(C)C)c(OCc2nc(-c3cccc4ccccc34)no2)c1 [Compound 3, 5-((2-isopropyl-5-methylphenoxy)methyl)-3-(naphthalen-1-yl)-1,2,4-oxadiazole]",inhibition zone,[1]; [10],18 mm
same,inhibition zone,[1]; [11],22 mm
same,inhibition zone,[1]; [12],30 mm
same,inhibition zone,[2]; [10],28 mm
same,inhibition zone,[2]; [11],30 mm
same,inhibition zone,[2]; [12],39 mm
same,inhibition zone,[3]; [10],27 mm
same,inhibition zone,[3]; [11],29 mm
same,inhibition zone,[3]; [12],46 mm
same,inhibition zone,[4]; [10],29 mm
same,inhibition zone,[4]; [11],32 mm
same,inhibition zone,[4]; [12],51 mm
same,inhibition zone,[5]; [10],24 mm
same,inhibition zone,[5]; [11],28 mm
same,inhibition zone,[5]; [12],37 mm
same,inhibition zone,[6]; [10],14 mm
same,inhibition zone,[6]; [11],21 mm
same,inhibition zone,[6]; [12],24 mm
same,antiproliferative activity,[7],excellent antiproliferative activities
same,antiproliferative activity,[8],excellent antiproliferative activities
same,antimicrobial activity,[9],excellent antimicrobial activities
